In the NIST ThermoML archive (doi:10.1016/j.jct.2010.11.012):
Numbers after ± are expanded uncertainties.

Test: xn = mol fraction of the nth substance listed
Details: Liquid, Bellows volumetry

CCCC [butane] + O=C=O
mass density [kg/m3]
Details | 280 K | 300 K | 320 K | 340 K | 360 K | 380 K | 400 K | 420 K | 440 K
3000 kPa, x2 = 0.2322 | 630.31 ± 1.7 | – | – | – | – | – | – | – | –
5000 kPa, x2 = 0.2322 | 633.96 ± 1.7 | – | 575.82 ± 2 | – | – | – | – | – | –
5000 kPa, x2 = 0.4794 | 680.75 ± 1.6 | 639.52 ± 2.6 | – | – | – | – | – | – | –
5000 kPa, x2 = 0.715 | 743.91 ± 3.4 | – | – | – | – | – | – | – | –
10000 kPa, x2 = 0.2322 | 642.11 ± 1.7 | – | 589.62 ± 2.1 | – | 527.83 ± 2.8 | – | 446.86 ± 3.4 | – | –
10000 kPa, x2 = 0.4794 | 692.87 ± 2.1 | 657.02 ± 2.6 | 616.31 ± 3 | 569.54 ± 3.6 | 511.93 ± 4.4 | – | – | – | –
10000 kPa, x2 = 0.715 | 764.37 ± 3.4 | – | 634.09 ± 5.2 | – | – | – | – | – | –
20000 kPa, x2 = 0.2322 | 656.07 ± 1.7 | – | 611.12 ± 1.9 | – | 561.64 ± 2.2 | – | 507.96 ± 3 | – | 450.53 ± 2.6
20000 kPa, x2 = 0.4794 | 712.84 ± 2.1 | 682.52 ± 2.3 | 650.15 ± 2.6 | 616.43 ± 3.1 | 580.87 ± 3.8 | 542.77 ± 3.1 | 502.33 ± 3.5 | – | –
20000 kPa, x2 = 0.715 | 794.78 ± 3 | – | 700.42 ± 4.6 | – | 589.3 ± 4.7 | – | – | – | –
30000 kPa, x2 = 0.2322 | 667.86 ± 1.6 | – | 627.12 ± 1.7 | – | 584.81 ± 1.9 | – | 540.33 ± 2.1 | – | 495.88 ± 2.4
30000 kPa, x2 = 0.4794 | 728.81 ± 2 | 701.65 ± 2 | 674.04 ± 2.2 | 645.49 ± 2.4 | 616.95 ± 2.6 | 587.13 ± 2.9 | 556.87 ± 3.2 | 526.92 ± 2.7 | 497.45 ± 2.8
30000 kPa, x2 = 0.715 | 817.62 ± 2.6 | – | 738.09 ± 3.2 | – | 653.81 ± 4.3 | – | 566.01 ± 4 | – | –
40000 kPa, x2 = 0.2322 | 678.47 ± 1.6 | – | 640.44 ± 1.6 | – | 602.48 ± 1.7 | – | 563.25 ± 1.8 | – | 525.21 ± 1.9
40000 kPa, x2 = 0.4794 | 742.52 ± 1.9 | 717.56 ± 1.9 | 692.66 ± 2 | 667.35 ± 2.1 | 642.35 ± 2.2 | 616.84 ± 2.3 | 591.24 ± 2.4 | 566.28 ± 2.6 | 541.84 ± 2.7
40000 kPa, x2 = 0.715 | 836.27 ± 2.4 | – | 765.65 ± 2.8 | – | 694.03 ± 3.2 | – | 621.7 ± 3.8 | – | 554.08 ± 3.3
50000 kPa, x2 = 0.2322 | 687.34 ± 1.6 | – | 652.04 ± 1.6 | – | 616.98 ± 1.6 | – | 581.4 ± 1.6 | – | 547.37 ± 1.7
50000 kPa, x2 = 0.4794 | 754.67 ± 1.8 | 731.07 ± 1.8 | 708.18 ± 1.9 | 685.08 ± 1.9 | 662.49 ± 2 | 639.71 ± 2 | 616.85 ± 2.1 | 595.02 ± 2.2 | 573.48 ± 2.2
50000 kPa, x2 = 0.715 | 852 ± 2.3 | – | 787.84 ± 2.5 | – | 724.09 ± 2.8 | – | 660.78 ± 3 | – | 601.28 ± 3.2
60000 kPa, x2 = 0.2322 | 695.74 ± 1.8 | – | 662.33 ± 1.9 | – | 629.59 ± 2 | – | 596.43 ± 2.1 | – | 565.31 ± 2.2
60000 kPa, x2 = 0.4794 | 764.81 ± 2.2 | 742.9 ± 2.2 | 721.35 ± 2.3 | 700 ± 2.4 | 679.22 ± 2.5 | 658.27 ± 2.6 | 637.36 ± 2.7 | 617.32 ± 2.8 | 597.98 ± 2.9
60000 kPa, x2 = 0.715 | 866.13 ± 2.9 | – | 806.49 ± 3.2 | – | 747.95 ± 3.6 | – | 690.23 ± 4 | – | 637.06 ± 4.3
70000 kPa, x2 = 0.2322 | 703.24 ± 1.8 | – | 671.53 ± 1.8 | – | 640.64 ± 1.9 | – | 609.35 ± 1.9 | – | 580.32 ± 2
70000 kPa, x2 = 0.4794 | 774.33 ± 2.1 | 753.65 ± 2.2 | 733.06 ± 2.2 | 713.41 ± 2.3 | 693.75 ± 2.4 | 674.23 ± 2.4 | 654.78 ± 2.5 | 635.97 ± 2.5 | 618.26 ± 2.6
70000 kPa, x2 = 0.715 | 878.47 ± 2.8 | – | 822.63 ± 3 | – | 768.11 ± 3.3 | – | 714.95 ± 3.6 | – | 665.83 ± 3.8
80000 kPa, x2 = 0.2322 | 710.1 ± 1.7 | – | 679.91 ± 1.8 | – | 650.47 ± 1.8 | – | 620.59 ± 1.8 | – | 593.42 ± 1.9
80000 kPa, x2 = 0.4794 | 783.23 ± 2.1 | 763.35 ± 2.1 | 744.07 ± 2.2 | 724.94 ± 2.2 | 706.48 ± 2.2 | 687.97 ± 2.3 | 669.8 ± 2.3 | 652.07 ± 2.4 | 635.67 ± 2.5
80000 kPa, x2 = 0.715 | 890.87 ± 2.7 | – | 836.62 ± 2.9 | – | 785.74 ± 3 | – | 735.73 ± 3.2 | – | 689.85 ± 3.4
90000 kPa, x2 = 0.2322 | 716.71 ± 1.7 | – | 687.47 ± 1.7 | – | 659.56 ± 1.8 | – | 631 ± 1.8 | – | 605.1 ± 1.8
90000 kPa, x2 = 0.4794 | 791.49 ± 2 | 772.13 ± 2 | 753.75 ± 2.1 | 735.81 ± 2.1 | 717.86 ± 2.1 | 700.34 ± 2.2 | 682.95 ± 2.2 | 666.23 ± 2.2 | 651.02 ± 2.3
90000 kPa, x2 = 0.715 | 901.14 ± 2.6 | – | 849.86 ± 2.7 | – | 801.06 ± 2.9 | – | 753.9 ± 3 | – | 710.59 ± 3.1
100000 kPa, x2 = 0.2322 | 723.23 ± 3.3 | – | 694.73 ± 3.2 | – | 667.72 ± 3.1 | – | 640.36 ± 3 | – | 615.81 ± 3
100000 kPa, x2 = 0.4794 | 798.9 ± 3.6 | 780.58 ± 3.7 | 762.74 ± 3.5 | 745.33 ± 3.5 | 728.39 ± 3.5 | 711.49 ± 3.5 | 695.05 ± 3.4 | 678.91 ± 3.4 | 664.29 ± 3.3
100000 kPa, x2 = 0.715 | 910.69 ± 4.4 | – | 861.47 ± 4.2 | – | 815.17 ± 4.2 | – | 770.02 ± 4 | – | 728.79 ± 4
120000 kPa, x2 = 0.2322 | 734.32 ± 3.3 | – | 707.88 ± 3.2 | – | 683.01 ± 3.2 | – | 657.01 ± 3.1 | – | 634.32 ± 3
120000 kPa, x2 = 0.4794 | 812.9 ± 3.8 | 795.54 ± 3.7 | 778.9 ± 3.6 | 762.5 ± 3.6 | 747.06 ± 3.5 | 731.12 ± 3.5 | 716.06 ± 3.5 | 701.1 ± 3.4 | 687.84 ± 3.4
120000 kPa, x2 = 0.715 | 928.62 ± 4.4 | – | 882.45 ± 4.3 | – | 839.59 ± 4.2 | – | 797.97 ± 4.1 | – | 759.95 ± 4
140000 kPa, x2 = 0.2322 | 744.8 ± 3.4 | – | 719.63 ± 3.3 | – | 695.82 ± 3.2 | – | 671.62 ± 3.1 | – | 650.31 ± 3
140000 kPa, x2 = 0.4794 | 825.4 ± 3.8 | 809.12 ± 3.7 | 793 ± 3.7 | 777.74 ± 3.6 | 763.38 ± 3.6 | 748.2 ± 3.5 | 734.23 ± 3.5 | 719.99 ± 3.4 | 707.66 ± 3.4
140000 kPa, x2 = 0.715 | 944.48 ± 4.4 | – | 900.69 ± 4.3 | – | 861.07 ± 4.2 | – | 821.54 ± 4.1 | – | 786.09 ± 4
160000 kPa, x2 = 0.2322 | 754.11 ± 3.6 | – | 730.08 ± 3.5 | – | 707.43 ± 3.5 | – | 684.45 ± 3.5 | – | 664.25 ± 3.4
160000 kPa, x2 = 0.4794 | 836.77 ± 4.1 | 820.91 ± 4.1 | 805.87 ± 4.1 | 791.24 ± 4 | 777.86 ± 4 | 763.43 ± 4 | 749.98 ± 4 | 736.74 ± 4 | 724.96 ± 4
160000 kPa, x2 = 0.715 | 958.48 ± 5 | – | 917.22 ± 5 | – | 878.95 ± 4.9 | – | 841.99 ± 4.9 | – | 808.63 ± 4.9
180000 kPa, x2 = 0.2322 | 762.53 ± 3.6 | – | 739.97 ± 3.5 | – | 718.38 ± 3.5 | – | 696.37 ± 3.4 | – | 676.7 ± 3.4
180000 kPa, x2 = 0.4794 | 847.4 ± 4.1 | 832.12 ± 4.1 | 817.41 ± 4 | 803.57 ± 4 | 790.57 ± 4 | 776.93 ± 4 | 764.27 ± 4 | 751.63 ± 3.9 | 740.16 ± 3.9
180000 kPa, x2 = 0.715 | 971.36 ± 4.9 | – | 931.83 ± 4.9 | – | 895.71 ± 4.9 | – | 860.22 ± 4.8 | – | 828.38 ± 4.8
200000 kPa, x2 = 0.2322 | 770.7 ± 3.6 | – | 748.41 ± 3.6 | – | 727.81 ± 3.5 | – | 706.63 ± 3.5 | – | 688.15 ± 3.4
200000 kPa, x2 = 0.4794 | 856.48 ± 5.7 | 842.22 ± 4.1 | 828.26 ± 4.9 | 815.1 ± 4.1 | 802.28 ± 4.7 | 789.44 ± 4 | 777.01 ± 4.6 | 764.81 ± 4 | 754.38 ± 4.9
200000 kPa, x2 = 0.715 | 983.53 ± 5 | – | 945.52 ± 5 | – | 910.63 ± 4.9 | – | 876.67 ± 5 | – | 846.42 ± 4.8
